Laboratory results published in patent US4764617A, “Quinaldinamide derivatives” (Nippon Chemiphar Co., Ltd., priority 1986, dated 1988).
Structures can show the parent of a compound that is named as a salt.

Key:
[1] = Acute toxicity (LD50, up-and-down method); conditions: in vivo; iv, tail vein, ddN male mouse; * fumarate, ** oxalate
Experimental: LD50 was determined by a known up-and-down method using ddN male mouse. The test compound was dissolved in a physiological saline solution, and the resulting solution was administered into the mouse through the tail vein.

[2] = tested on: anemic decerebrated rigidity; assay: Effect on anemic decerebrated rigidity (rigidity relieving effect, EMG of forelimb M. triceps brachii); format: in vivo, rat (Wister male rats); conditions: rat; for inhibition in vivo at 3 mg/kg: iv, 10 min, 3 mg/kg through the femoral vein, 10 minutes after administration, * fumarate, ** oxalate, read-out: Relieving Rate (suppression rate of EMG)
Experimental: The experiment was performed using specimen of anemic decerebrated rigidity produced in rats according to the method of Fukuda, H., Ito, T., Hashimoto, S., and Kudo, Y.; Japan, J., Pharmacol., 24, 810 (1974). Wister male rats (body weight: 270 to 350 g) were held on their backs and incised at their cervices under etherization. After the trachea and common carotid arteries were exposed, the trachea was cannulated and the bilateral common carotid arteries and esophagus were then double-[…] cut. Subsequently, its occipital bone was exposed through which a circular hole was bored to double-ligate the centrally extending basilar artery. As each rat started coming out of anesthetization, its front limbs became rigid. Measurement was conducted by recording electromyographic (EMG) response from the muscle of the forelimb (M. triceps brachii) of the rat in the rigid state. The EMG pulses were converted to accumulated values every 10 seconds and recorded as a histogram on a recorder. The effect of each test compound on the rigidity was evaluated in terms of the suppression rate. This rate was calculated first by determining the area (see FIG. 1) of a decreased EMG pulse part on the histrograpm upon passage of 10 minutes after administration of a physiological saline solution of each test compound (3 mg/kg) through the femoral vein and then in accordance with the following equation: Suppression rate (%)=(a/A)×100 wherein a means an EMG pulse area decreased as a result of the administration of the test compound; and A means an EMG pulse area observed when no test compound was administered (control).

[3] = tested on: glutamic acid at neuromuscular junctions of crayfish (opener muscles of the first walking legs); assay: Blocking effects on glutamic acid at neuromuscular junctions of crayfish (suppression of L-glutamic acid-induced depolarization); conditions: test compound 2×10^-4 M, 5-minute pretreatment; L-glutamic acid 10^-4 M; 200 µM
Experimental: The method of Ishida et al., [(J. Physiol., 298, 301-319 (1980)] and that of Shinozaki et al. [Comp. Biochem. Physiol., 70c, 49-58 (1981)] were followed. The opener muscles of the first walking legs of crayfish were used as experimental materials. The neuromuscular sample was held in a bath in which a physiologicl solution [NaCl (195 mM), CaCl2 (18 mM, KCl (5.4 mM), tris-maleate buffer (pH 7.5, 10 mM), and glucose (11 mM)] for use with the cray fish was perfused at room temperature and at a constant flow rate. A glass micro-electrode filled with a 3M-KCl solution was inserted in a central part of the muscle fiber to intracellularly record the changes in the potential of the muscular cell membrane.
The blocking effect of each test compound on glutamic acid was evaluated in terms of the suppression rate to depolarization which was induced by bath-applying L-glutamic acid (10^-4 M) in a 5-minute pretreatment with a solution of the test compound (2×10^-4 M).

For `CCN(CC)CCC(NC(=O)c1ccc2ccccc2n1)c1ccccc1` (centres unmarked) [Compound 2, N-(3-diethylamino-1-phenylpropyl)quinaldinamide], the LD50 [1] was 18.9 mg/kg and the inhibition in vivo at 3 mg/kg [2] was 24.6%.
In the case of `O=C(NC(CCN1CCCC1)c1ccccc1)c1ccc2ccccc2n1` (centres unmarked) [Compound 4, N-(1-phenyl-3-pyrrolidinopropyl)quinaldinamide], the LD50 [1] is reported as 17.2 mg/kg and the inhibition in vivo at 3 mg/kg [2] is reported as 19.6%.
For `O=C(NC(CCN1CCCCC1)c1ccccc1)c1ccc2ccccc2n1` (centres unmarked) [Compound 5, N-(1-phenyl-3-piperidinopropyl)quinaldinamide], the LD50 [1] was 24.8 mg/kg, the “Glutamic Acid-Blocking Rate (suppression rate to depolarization)” value [3] was 66% and the inhibition in vivo at 3 mg/kg [2] was 18.8%.
`O=C(NC(CCN1CCCCCC1)c1ccccc1)c1ccc2ccccc2n1` (centres unmarked) [Compound 6, N-[3-(perhydroazepin-1-yl)-1-phenylpropyl]quinaldinamide] gave an LD50 [1] of 15.2 mg/kg and an inhibition in vivo at 3 mg/kg [2] of 12.2%.
`Cc1ccccc1C(CCN1CCCCC1)NC(=O)c1ccc2ccccc2n1` (centres unmarked) [Compound 7, N-[1-(2-methylphenyl)-3-piperidinopropyl]quinaldinamide] showed an LD50 [1] of 23.5 mg/kg and an inhibition in vivo at 3 mg/kg [2] of 11.2%.
`Cc1cccc(C(CCN2CCCCC2)NC(=O)c2ccc3ccccc3n2)c1` (centres unmarked) [Compound 8, N-[1-(3-methylphenyl)-3-piperidinopropyl]quinaldinamide] showed an LD50 [1] of 25.4 mg/kg and an inhibition in vivo at 3 mg/kg [2] of 11.7%.
For `CCN(CC)CCNC(=O)c1ccc2ccccc2n1` [Control Compound 1, N-(2-diethylaminoethyl)quiinaldinamide fumarate, reference compound], the “Glutamic Acid-Blocking Rate (suppression rate to depolarization)” value [3] was 30% and the inhibition in vivo at 3 mg/kg [2] was 1.2%.
Compound `Cc1ccc(C(=O)C(C)CN2CCCCC2)cc1` (centres unmarked) [Control Compound 2, 2,4'-dimethyl-3-piperidinopropiophenone hydrochloride, reference compound] has an inhibition in vivo at 3 mg/kg [2] of 4.8%.
In the case of `CCN(CC)CCNC(=O)c1ccc2ccccc2n1` [N-(2-diethylaminoethyl)quinaldinamide, reference compound], the “rigidity relieving effect (in words)” value ([2]; in vivo) is reported as “very weak rigidity relieving effect”.
